Assay results published in PubChem BioAssay AID1919005 (Molecular Pharmacology Branch, DTP, NCI, 2023).
“And” between values parts separate entries of the source, which are not always exact repeats. Equal values may be shown once.

Tested on: 855422-203-R-J1-PDC complex spheroid growth
Experiment: Anticancer human tumor 855422-203-R-J1-PDC patient-derived bladder carcinoma cell line growth inhibition [AhR]
Details: for viability, T/C: stronger effect = lower value
Summary of the method: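 Complex tumor spheroids co-cultured with HUVEC and human MSC stroma; AhR antagonists tested in combination with standard-of-care and investigational agents. Top concentration at or near clinical Cmax (else 10 microM), half-log dilutions; growth expressed as percent test/control.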

[1] = curve of first compound, second compound 0.1 µM
[2] = curve of first compound, second compound 0.316 µM
[3] = curve of first compound, second compound 1 µM
[4] = curve of first compound, second compound 3.16 µM
[5] = curve of first compound, second compound 10 µM
[6] = second compound 0.1 µM, first compound 0.0316 µM
[7] = second compound 0.1 µM, first compound 0.1 µM
[8] = second compound 0.1 µM, first compound 0.316 µM
[9] = second compound 0.1 µM, first compound 1 µM
[10] = second compound 0.1 µM, first compound 3.16 µM
[11] = second compound 0.1 µM, first compound 10 µM
[12] = second compound 0.316 µM, first compound 0.0316 µM
[13] = second compound 0.316 µM, first compound 0.1 µM
[14] = second compound 0.316 µM, first compound 0.316 µM
[15] = second compound 0.316 µM, first compound 1 µM
[16] = second compound 0.316 µM, first compound 3.16 µM
[17] = second compound 0.316 µM, first compound 10 µM
[18] = second compound 1 µM, first compound 0.0316 µM
[19] = second compound 1 µM, first compound 0.1 µM
[20] = second compound 1 µM, first compound 0.316 µM
[21] = second compound 1 µM, first compound 1 µM
[22] = second compound 1 µM, first compound 3.16 µM
[23] = second compound 1 µM, first compound 10 µM
[24] = second compound 3.16 µM, first compound 0.0316 µM
[25] = second compound 3.16 µM, first compound 0.1 µM
[26] = second compound 3.16 µM, first compound 0.316 µM
[27] = second compound 3.16 µM, first compound 1 µM
[28] = second compound 3.16 µM, first compound 3.16 µM
[29] = second compound 3.16 µM, first compound 10 µM
[30] = second compound 10 µM, first compound 0.0316 µM
[31] = second compound 10 µM, first compound 0.1 µM
[32] = second compound 10 µM, first compound 0.316 µM
[33] = second compound 10 µM, first compound 1 µM
[34] = second compound 10 µM, first compound 3.16 µM
[35] = second compound 10 µM, first compound 10 µM
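Note: spheroids exposed to agents for seven days before readout.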
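Throughout, for viability, T/C: percent of DMSO vehicle control luminescence viability.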

Work on `COc1ccc([C@@H](O)c2cc(-c3ncnc4cc(N5CCOCC5)ccc34)c(F)cc2Cl)nn1` + Cc1ccccc1N=Nc1ccc(NC(=O)c2ccnn2C)c(C)c1 yielded an IC50 [1] of over 10 µM, an IC50 [2] of over 10 µM and an IC50 [3] of over 10 µM. The IC50 [4] was over 10 µM, the IC50 [5] was 6.18 µM and the viability, T/C [6] was 99.2%. For the same molecule, the viability, T/C [7] was 108%, the viability, T/C [8] was 98.3% and the viability, T/C [9] was 96.5%. It also gave a viability, T/C [10] of 87.3%, a viability, T/C [11] of 71.3% and a viability, T/C [12] of 107%. For the same molecule, the viability, T/C [13] was 111%, the viability, T/C [14] was 99.8% and the viability, T/C [15] was 102%. For the same molecule, the viability, T/C [16] was 90.1%, the viability, T/C [17] was 70.3% and the viability, T/C [18] was 107%. It also gave a viability, T/C [19] of 102%, a viability, T/C [20] of 106% and a viability, T/C [21] of 96.9%. For the same molecule, the viability, T/C [22] was 87.8%, the viability, T/C [23] was 63.1% and the viability, T/C [24] was 95.9%. The viability, T/C [25] was 100%, the viability, T/C [26] was 95.7% and the viability, T/C [27] was 98.6%. For the same molecule, the viability, T/C [28] was 77.1%, the viability, T/C [29] was 54.8% and the viability, T/C [30] was 87.8%. It also gave a viability, T/C [31] of 91.6%, a viability, T/C [32] of 86.1% and a viability, T/C [33] of 86%. The viability, T/C [34] was 62% and the viability, T/C [35] was 41.4%.

In the case of `Cc1cncc(-c2nc(NCCc3c[nH]c4ccccc34)c3ncn(C(C)C)c3n2)c1`, the viability, T/C (compound 0.1 µM) is reported as 92.2% [middle of 19 runs], the viability, T/C (compound 1 µM) is reported as 86.3% [middle of 20 runs] and the IC50 (compound alone, run of 06/06/2022) is reported as 5.43 µM [middle of 22 runs].

Work on `CC(C)c1c(-c2ccccc2)nc2c(C#N)c[nH]n2c1=O` + Cc1cncc(-c2nc(NCCc3c[nH]c4ccccc34)c3ncn(C(C)C)c3n2)c1 yielded an IC50 [1] of over 10 µM, an IC50 [2] of over 10 µM and an IC50 [3] of over 10 µM. For the same molecule, the IC50 [4] was over 10 µM, the IC50 [5] was under 0.0316 µM and the viability, T/C [6] was 112%. For the same molecule, the viability, T/C [7] was 91.1%, the viability, T/C [8] was 104% and the viability, T/C [9] was 95.9%. The viability, T/C [10] was 94.2%, the viability, T/C [11] was 78.8% and the viability, T/C [12] was 90.1%. The viability, T/C [13] was 97.2%, the viability, T/C [14] was 83.8% and the viability, T/C [15] was 82.5%. It also gave a viability, T/C [16] of 75.4%, a viability, T/C [17] of 78.1% and a viability, T/C [18] of 82.7%. For the same molecule, the viability, T/C [19] was 92.1%, the viability, T/C [20] was 90% and the viability, T/C [21] was 74.3%. The viability, T/C [22] was 76.4%, the viability, T/C [23] was 72.1% and the viability, T/C [24] was 78.6%. It also gave a viability, T/C [25] of 87.2%, a viability, T/C [26] of 84.1% and a viability, T/C [27] of 57%. For the same molecule, the viability, T/C [28] was 68.9%, the viability, T/C [29] was 63.9% and the viability, T/C [30] was 5.73%. The viability, T/C [31] was 5.87%, the viability, T/C [32] was 2.84% and the viability, T/C [33] was 1.09%. For the same molecule, the viability, T/C [34] was 3.05% and the viability, T/C [35] was 4.37%.

`Cn1ncnc1C1c2n[nH]c(=O)c3cc(F)cc(c23)NC1c1ccc(F)cc1` (stereo not given) + Cc1cncc(-c2nc(NCCc3c[nH]c4ccccc34)c3ncn(C(C)C)c3n2)c1 was tested, and the IC50 [1] was over 0.1 µM, the IC50 [2] was over 0.1 µM and the IC50 [3] was over 0.1 µM. The IC50 [4] was over 0.1 µM, the IC50 [5] was under 0.000316 µM and the viability, T/C (second compound 0.1 µM, first compound 0.000316 µM) was 84.1%. The viability, T/C (second compound 0.1 µM, first compound 0.001 µM) was 85.3%, the viability, T/C (second compound 0.1 µM, first compound 0.00316 µM) was 87.6% and the viability, T/C (second compound 0.1 µM, first compound 0.01 µM) was 95.9%. It also gave a viability, T/C [6] of 87.8%, a viability, T/C [7] of 88.2% and a viability, T/C (second compound 0.316 µM, first compound 0.000316 µM) of 91.7%. For the same molecule, the viability, T/C (second compound 0.316 µM, first compound 0.001 µM) was 80.8%, the viability, T/C (second compound 0.316 µM, first compound 0.00316 µM) was 73.1% and the viability, T/C (second compound 0.316 µM, first compound 0.01 µM) was 88.5%. The viability, T/C [12] was 90.3%, the viability, T/C [13] was 81.6% and the viability, T/C (second compound 1 µM, first compound 0.000316 µM) was 81.3%. It also gave a viability, T/C (second compound 1 µM, first compound 0.001 µM) of 86.2%, a viability, T/C (second compound 1 µM, first compound 0.00316 µM) of 76.4% and a viability, T/C (second compound 1 µM, first compound 0.01 µM) of 78.3%. It also gave a viability, T/C [18] of 77.2%, a viability, T/C [19] of 84% and a viability, T/C (second compound 3.16 µM, first compound 0.000316 µM) of 67.6%. For the same molecule, the viability, T/C (second compound 3.16 µM, first compound 0.001 µM) was 74.4%, the viability, T/C (second compound 3.16 µM, first compound 0.00316 µM) was 71.4% and the viability, T/C (second compound 3.16 µM, first compound 0.01 µM) was 56.6%. It also gave a viability, T/C [24] of 76.9%, a viability, T/C [25] of 75.2% and a viability, T/C (second compound 10 µM, first compound 0.000316 µM) of 30.7%. It also gave a viability, T/C (second compound 10 µM, first compound 0.001 µM) of 29.6%, a viability, T/C (second compound 10 µM, first compound 0.00316 µM) of 21.5% and a viability, T/C (second compound 10 µM, first compound 0.01 µM) of 5.12%. It also gave a viability, T/C [30] of 23.6% and a viability, T/C [31] of 26.1%.

In the case of `CCN(c1cc(-c2ccc(CN3CCOCC3)cc2)cc(C(=O)NCc2c(C)cc(C)[nH]c2=O)c1C)C1CCOCC1` + Cc1ccccc1N=Nc1ccc(NC(=O)c2ccnn2C)c(C)c1, the IC50 [1] is reported as over 3 µM, the IC50 [2] is reported as over 3 µM and the IC50 [3] is reported as over 3 µM. For the same molecule, the IC50 [4] was over 3 µM, the IC50 [5] was over 3 µM and the viability, T/C (second compound 0.1 µM, first compound 0.00949 µM) was 105%. It also gave a viability, T/C (second compound 0.1 µM, first compound 0.03 µM) of 93.4%, a viability, T/C (second compound 0.1 µM, first compound 0.0949 µM) of 93.2% and a viability, T/C (second compound 0.1 µM, first compound 0.3 µM) of 91.2%. For the same molecule, the viability, T/C (second compound 0.1 µM, first compound 0.949 µM) was 91.1%, the viability, T/C (second compound 0.1 µM, first compound 3 µM) was 87.5% and the viability, T/C (second compound 0.316 µM, first compound 0.00949 µM) was 93.7%. The viability, T/C (second compound 0.316 µM, first compound 0.03 µM) was 93.2%, the viability, T/C (second compound 0.316 µM, first compound 0.0949 µM) was 92.6% and the viability, T/C (second compound 0.316 µM, first compound 0.3 µM) was 97.3%. It also gave a viability, T/C (second compound 0.316 µM, first compound 0.949 µM) of 87%, a viability, T/C (second compound 0.316 µM, first compound 3 µM) of 85.3% and a viability, T/C (second compound 1 µM, first compound 0.00949 µM) of 105%. For the same molecule, the viability, T/C (second compound 1 µM, first compound 0.03 µM) was 98.8%, the viability, T/C (second compound 1 µM, first compound 0.0949 µM) was 95.6% and the viability, T/C (second compound 1 µM, first compound 0.3 µM) was 96.3%. For the same molecule, the viability, T/C (second compound 1 µM, first compound 0.949 µM) was 92.8%, the viability, T/C (second compound 1 µM, first compound 3 µM) was 85.3% and the viability, T/C (second compound 3.16 µM, first compound 0.00949 µM) was 91.3%. For the same molecule, the viability, T/C (second compound 3.16 µM, first compound 0.03 µM) was 90.2%, the viability, T/C (second compound 3.16 µM, first compound 0.0949 µM) was 84.3% and the viability, T/C (second compound 3.16 µM, first compound 0.3 µM) was 87.1%. The viability, T/C (second compound 3.16 µM, first compound 0.949 µM) was 83.6%, the viability, T/C (second compound 3.16 µM, first compound 3 µM) was 82.3% and the viability, T/C (second compound 10 µM, first compound 0.00949 µM) was 84.2%. The viability, T/C (second compound 10 µM, first compound 0.03 µM) was 76.8%, the viability, T/C (second compound 10 µM, first compound 0.0949 µM) was 79.8% and the viability, T/C (second compound 10 µM, first compound 0.3 µM) was 77.8%. The viability, T/C (second compound 10 µM, first compound 0.949 µM) was 71.3% and the viability, T/C (second compound 10 µM, first compound 3 µM) was 72.4%.

`COc1ccc([C@@H](O)c2cc(-c3ncnc4cc(N5CCOCC5)ccc34)c(F)cc2Cl)nn1` was tested, and the viability, T/C (compound 0.0316 µM) was 115% and 108% (2×), the viability, T/C (compound 0.1 µM) was 97.6% and 101% and 89.4% and the viability, T/C (compound 0.316 µM) was 102% and 105% and 88.9%. The viability, T/C (compound 1 µM) was 89.7% and 98.2% and 82%, the viability, T/C (compound 3.16 µM) was 79% and 89.1% and 76.9% and the viability, T/C (compound 10 µM) was 52.3% and 71.5% and 57.8%. For the same molecule, the IC50 (curve of compound) was over 10 µM.
